Test results from patent US9249104B2, “Pyrazole indanyl carboxamides” (BAYER CROPSCIENCE AG, priority 2012, dated 2016).

Assay: logP by HPLC on reversed phase columns (EEC directive 79/831 Annex V.A8)
Assay type: physicochemical
Settings: method [a]: LC-MS at pH 2.7, 0.1% formic acid in water / acetonitrile
[1] = compounds of formula (I), Table 1
[2] = amines of formula (III-a), Table 2

Structure (SMILES): CC(C)c1nn(C)cc1C(=O)Nc1cccc2c1CC(C(C)C)C2(C)C (racemic) [Example 61]
- logP [1]: 4.56[a]

Structure (SMILES): CCc1c(C(=O)Nc2cccc3c2CC(CC)C3(C)C)cnn1C (racemic) [Example 63]
- logP [1]: 3.83[a]

Structure (SMILES): CCCc1nn(C)cc1C(=O)Nc1cccc2c1CC(CC)C2(C)C (racemic) [Example 64]
- logP [1]: 4.2[a]

Structure (SMILES): CCCc1nn(C)c(F)c1C(=O)Nc1cccc2c1CC(C(C)C)C2(C)C (racemic) [Example 65]
- logP [1]: 5.29[a]

Structure (SMILES): CCC1Cc2c(NC(=O)c3cn(C)nc3C(C)C)cccc2C1(C)C (racemic) [Example 67]
- logP [1]: 4.18[a]

Structure (SMILES): CC1Cc2c(NC(=O)c3cn(C)nc3[N+](=O)[O-])cccc2C1(C)C (racemic) [Example 76]
- logP [1]: 3.67[a]

Structure (SMILES): CC1Cc2c(NC(=O)c3c(C4CC4)nn(C)c3Cl)cccc2C1(C)C (racemic) [Example 78]
- logP [1]: 4.46[a]

Structure (SMILES): CC1Cc2c(NC(=O)c3c(C(F)(F)F)nn(C)c3C(F)F)cccc2C1(C)C (racemic) [Example 81]
- logP [1]: 4.09[a]

Structure (SMILES): CCc1nn(C)cc1C(=O)Nc1cccc2c1CC(CC)(CC)C2C (racemic) [Example 82]
- logP [1]: 4.06[a]

Structure (SMILES): CC1Cc2c(NC(=O)c3cn(C)nc3C(F)(F)C(F)(F)F)cccc2C1(C)C (racemic) [Example 85]
- logP [1]: 4.21[a]

Structure (SMILES): CC(C)C1Cc2cccc(N)c2C1 (racemic) [Example III-a-1]
- logP [2]: 2.25[a]

Structure (SMILES): CC(C)C1Cc2c(N)cccc2C1(C)C (racemic) [Example III-a-2]
- logP [2]: 2.8[a]

Structure (SMILES): CC1Cc2c(N)cccc2C1(C)C (racemic) [Example III-a-3]
- logP [2]: 1.95[a]

Structure (SMILES): CCCc1nn(C)c(F)c1C(=O)Nc1cccc2c1CC(C)C2(C)C (centres unmarked) [Example 19]
- logP [1]: 4.39[a]

Structure (SMILES): CCc1c(C(=O)Nc2cccc3c2CC(C(C)C)C3(C)C)cnn1C (centres unmarked) [Example 46]
- logP [1]: 4.21[a]

Structure (SMILES): CCCc1nn(C)cc1C(=O)Nc1cccc2c1CC(C(C)C)C2(C)C (centres unmarked) [Example 47]
- logP [1]: 4.51[a]

Structure (SMILES): CCC1(CC)Cc2c(NC(=O)c3c(C)nn(C)c3C)cccc2C1C (centres unmarked) [Example 51]
- logP [1]: 3.85[a]

Structure (SMILES): Cc1nn(C)c(C(F)(F)Cl)c1C(=O)Nc1cccc2c1CC(C(C)C)C2(C)C (centres unmarked) [Example 53]
- logP [1]: 4.86[a]

Structure (SMILES): CCC1Cc2c(NC(=O)c3c(C)nn(C)c3C(F)(F)Cl)cccc2C1(C)C (centres unmarked) [Example 58]
- logP [1]: 4.46[a]

Structure (SMILES): Cc1c(C(=O)Nc2cccc3c2CC(C)C3(C)C)c(C(F)(F)Cl)nn1C (centres unmarked) [Example 72]
- logP [1]: 3.99[a]

Structure (SMILES): CC(C)C1Cc2c(N)cccc2C1C (centres unmarked) [Example III-a-5]
- logP [2]: 2.34[a]

Structure (SMILES): CC1c2cccc(N)c2CC12CCCC2 (centres unmarked) [Example III-a-7, 1′-methyl-1′,3′-dihydrospiro[cyclopentane-1,2′-inden]-4′-amine]
- chromatographic logP (reversed phase HPLC columns, amines of formula (III-a), Table 2, read-out: logP): 2.39

Structure (SMILES): Nc1cccc2c1CC(Cc1ccccc1)C2 (centres unmarked) [Example III-a-8]
- logP [2]: 2.54[a]

Structure (SMILES): CC1Cc2c(N)cccc2C1C (centres unmarked) [Example III-a-13]
- logP [2]: 1.44[a]

Structure (SMILES): CC1c2c(N)cccc2C(C)(C)C1C (centres unmarked) [Example III-a-14]
- logP [2]: 2.4[a]

Structure (SMILES): CCC1Cc2c(N)cccc2C1(C)C (centres unmarked) [Example III-a-17]
- logP [2]: 2.47[a]

Structure (SMILES): CCC1(CC)Cc2c(N)cccc2C1C (centres unmarked) [Example III-a-18]
- logP [2]: 2.63[a]

Structure (SMILES): Nc1cccc2c1CC1(CCCC1)C2 [III-a-4]
- logP [2]: 2.1[a]

Structure (SMILES): CCC1Cc2cccc(N)c2C1 (centres unmarked) [III-a-6]
- logP [2]: 1.76[a]

Structure (SMILES): CC(C)C1Cc2cccc(N)c2C1C (centres unmarked) [III-a-9]
- logP [2]: 2.9[a]

Structure (SMILES): Nc1cccc2c1CC(C1CCCC1)C2 (centres unmarked) [III-a-11]
- logP [2]: 2.94[a]

Structure (SMILES): CON=C1c2cccc(N)c2CC1(C)C [III-a-12]
- logP [2]: 2.08[a]
